Measurements reported in US9174942B2, “IDO inhibitors” (NewLink Genetics Corporation, priority 2008, dated 2015).

target: T1, purified human IDO protein (Homo sapiens, UniProt P14902, E119G/P110S); assay: Enzymatic IDO assay (kynurenine formation, absorbance at 480 nm); format: biochemical; details: recombinant human IDO, 200 μM L-tryptophan, pH 6.5; reported in ranges
T1 construct: 6-Histidine tag (C); made in house; host or cells: E. coli M15(pREP4) transformed with pQE70-hIDO
Description: The inhibitors were initially diluted in DMSO at 100 mM and were diluted in potassium phosphate 50 mM, added to the reaction mixture at final concentrations raging from 1 mM to 5 nM and preincubated with the enzyme for 5 min at 25° C. The reaction was started by addition of L-tryptophan to 200 μM and incubated 15 min at 37° C. The reaction was stopped by addition of 0.5 vol of 30% trichloroacetic acid and incubated 30 min at 60° C. to hydrolyze N-formylkynurenine to kynurenine. The reaction was centrifuged at 3400 g for 5 min to remove precipitated protein and the supernatant was reacted with 2% (w/v) of p-dimethylaminobenzaldehyde in acetic acid. The reaction was incubated 10 min at 25° C. and read at 480 nm in a spectrophotometer. […] Nonlinear regressions and determination of the IC50 values were performed using the GraphPad Prism 4 software.

T1 sequence (P14902 whole entry P110S/E119G): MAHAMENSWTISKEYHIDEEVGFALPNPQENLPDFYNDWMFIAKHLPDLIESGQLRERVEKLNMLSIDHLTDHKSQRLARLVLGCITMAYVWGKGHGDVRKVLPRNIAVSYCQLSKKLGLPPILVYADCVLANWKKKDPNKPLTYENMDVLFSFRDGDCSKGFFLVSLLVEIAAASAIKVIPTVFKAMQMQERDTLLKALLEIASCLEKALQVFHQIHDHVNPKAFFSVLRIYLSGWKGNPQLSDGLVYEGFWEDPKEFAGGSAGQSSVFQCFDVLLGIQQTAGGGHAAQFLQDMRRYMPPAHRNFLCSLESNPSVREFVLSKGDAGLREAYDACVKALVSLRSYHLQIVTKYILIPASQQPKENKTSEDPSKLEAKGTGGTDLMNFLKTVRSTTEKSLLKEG

SMILES	IC50 [µM]
CC(=O)N1CCC(CCOc2ccccc2-c2c[nH]cn2)CC1 [Compound 151, 1-(4-(2-(2-(1H-imidazol-4-yl)phenoxy)ethyl)piperidin-1-yl)ethanone]	< 20
CC(C)(C)OC(=O)Nc1ccccc1-c1c[nH]cn1 [Compound 152, tert-butyl 2-(1H-imidazol-4-yl)phenylcarbamate]	< 20
O=C(O)c1ccccc1-c1c[nH]cn1 [Compound 153, 2-(1H-imidazol-4-yl)benzoic acid]	100 to 500
CC(=O)NCc1ccc(COc2ccccc2-c2c[nH]cn2)cc1 [Compound 154, N-(4-((2-(1H-imidazol-4-yl)phenoxy)methyl)benzyl) acetamide]	20 to 100
Nc1ccccc1-c1cnc[nH]1 [Compound 155, 2-(1H-imidazol-4-yl)aniline]	20 to 100
Oc1ccc(C(F)(F)F)cc1-c1c[nH]cn1 [Compound 156, 2-(1H-imidazol-4-yl)-4-(trifluoromethyl)phenol]	< 20
c1ccc(-c2c[nH]cn2)c(OCC2CCNCC2)c1 [Compound 157, 4-((2-(1H-imidazol-4-yl)phenoxy)methyl)piperidine]	20 to 100
Oc1ccc(CCOc2ccccc2-c2c[nH]cn2)cc1 [Compound 158, 4-(2-(2-(1H-imidazol-4-yl)phenoxy)ethyl)phenol]	< 20
O=C1c2ccccc2CC1Oc1ccccc1-c1c[nH]cn1 (stereo not drawn) [Compound 159, 2-(2-(1H-imidazol-4-yl)phenoxy)-2,3-dihydro-1H-inden-1-one]	20 to 100
N#CC1CCC(=CCOc2ccccc2-c2c[nH]cn2)CC1 (stereo not drawn) [Compound 160, 4-(2-(2-(1H-imidazol-4-yl)phenoxy)ethylidene)cyclohexanecarbonitrile]	< 20
CC(C)(CCOc1ccccc1-c1c[nH]cn1)CCN1CCOCC1 [Compound 161, 4-(5-(2-(1H-imidazol-4-yl)phenoxy)-3,3-dimethylpentyl) morpholine]	20 to 100
CC(C)(CCOc1ccccc1-c1c[nH]cn1)CCn1c(=O)c(F)cn([C@@H]2O[C@H](CO)[C@@H](O)[C@H]2O)c1=O [Compound 162, 3-(5-(2-(1H-imidazol-4-yl)phenoxy)-3,3-dimethylpentyl)-1-((2R,3R,4S,5R)-3,4-dihydroxy-5-(hydroxymethyl)tetrahydrofuran-2-yl)-5-fluoropyrimidine-2,4(1H,3H)-dione]	< 20
CC(C)(CCOc1ccccc1-c1cnc[nH]1)CCn1ccnc1 [Compound 163, 5-(2-(5-(1H-imidazol-1-yl)-3,3-dimethylpentyloxy)phenyl)-1H-imidazole]	100 to 500
CC(C)(CCNc1ccncc1)CCOc1ccccc1-c1cnc[nH]1 [Compound 164, N-(5-(2-(1H-imidazol-5-yl)phenoxy)-3,3-dimethylpentyl) pyridin-4-amine]	20 to 100
CC(=O)Nc1ccccc1CCOc1ccccc1-c1c[nH]cn1 [Compound 165, N-(2-(2-(2-(1H-imidazol-4-yl)phenoxy)ethyl)phenyl) acetamide]	100 to 500
CC(C)(CCNCc1ccccc1)CCOc1ccccc1-c1c[nH]cn1 [Compound 166, 5-(2-(1H-imidazol-4-yl)phenoxy)-N-benzyl-3,3-dimethylpentan-1-amine]	< 20
CC(C)(CCO)CCOc1ccccc1-c1c[nH]cn1 [Compound 167, 5-(2-(1H-imidazol-4-yl)phenoxy)-3,3-dimethylpentan-1-ol]	20 to 100
NC(=O)C1CCC(=CCOc2ccccc2-c2c[nH]cn2)CC1 (stereo not drawn) [Compound 168, 4-(2-(2-(1H-imidazol-4-yl)phenoxy)ethylidene)cyclohexanecarboxamide]	< 20
